pEC50, pKi: −log10 of the molar value.
What was measured:
CB2 receptor [1] = molecular target: T1, CB2 receptor (Homo sapiens, UniProt P34972); test: cell-based; design: host or cells: cAMP Hunter cell lines
Outline: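 PathHunter β-Arrestin enzyme fragment complementation cells, EA-tagged β-Arrestin and PK-tagged receptor, exposed to compound for 90 to 180 minutes at 37° C. or room temperature, 1% vehicle. Chemiluminescence read 1 h after detection reagent; agonist % activity relative to vehicle and MAX control ligand.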

[2] = test system: 12 systems of human primary cells; test: BioMAP Diversity PLUS phenotypic screen; format: cell-based; conditions: 3.3 μM; for Immune modulation, cell surface and tissue remodeling biomarkers: changes at least 1.5-fold from vehicle control
Experimental: Compounds of the invention were assayed for their effects on 148 biomarkers of inflammation, immune modulation and tissue remodeling in the BioMAP® Diversity PLUS® (DiscoverX) platform designed to model aspects of human diseases in vitro (Kunkel 2004, Berg 2006, Melton 2013).
The example compounds (3.3 μM) in Table 8 induced increases or decreases in the levels of the indicated 20 biomarkers, which are at least 1.5-fold change from vehicle control and are outside the significance prediction envelop. All compounds presented in Table 8 were not cytotoxic at the concentration tested.

CB2 receptor [3] = molecular target: T1, CB2 receptor; test: cAMP Assay #1: CB2 adenylylcyclase assay in CHO cells; format: cell-based; design: expressed in transfected cells; host or cells: CHO cells
Experimental: (§1) Compounds of the invention were assayed in an adenylylcyclase assay to determine agonist activity on the CB1 and CB2 receptors, the results of which are provided in Table 4. Exemplary methods for the adenylylcyclase assay can be found in the literature, for example, in Rhee, M-H., et al. Cannabinol Derivatives: Binding to Cannabinoid Receptors and Inhibition of Adenylylcyclase. J Med Chem. 40: 3228-3233 (1997).
CB2 Activity as determined by Adenylylcyclase Assay: CB2 receptor agonist activity was measured by measuring cAMP production. A compound of the invention was incubated with CHO cells expressing human recombinant CB2 for 10 minutes at 37° C.
(§2) Determination of EC50 values: The EC50 values (concentration producing a half-maximal response) were determined by non-linear regression analysis of the concentration-response curves generated with mean replicate values using Hill equation curve fitting: Y=D+[(A−D)/(1+(C/C50)^nH)], where Y=response, A=left asymptote of the curve, D=right asymptote of the curve, C=compound concentration, and C50=EC50, and nH=slope factor. This analysis was performed using software developed at Cerep (Hill software) and validated by comparison with data generated by the commercial software SigmaPlot® 4.0 for Windows® (© 1997 by SPSS Inc.).

CB2 receptor [4] = molecular target: T1, CB2 receptor; test: cAMP Assay #2: Hit Hunter cAMP assay, Gi-coupled agonist activity, CB2; format: cell-based; design: host or cells: cAMP Hunter cell lines; conditions: for CB2 fold selectivity: Hit Hunter cAMP, CB1 EC50 / CB2 EC50
CB2 receptor [5] = molecular target: T1, CB2 receptor; test: CB2 competitive radioligand binding assay ([3H] WIN-55,212-2); design: expressed in transfected cells; host or cells: CHO-K1 cells; conditions: for Fold Selectivity (CB1/CB2): Table 3, ratio of Ki CB1/CB2
Outline: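 CHO-K1 cells expressing human recombinant CB2 were incubated with compound (0.05 μM, 1% DMSO) and 2.4 nM [3H]WIN-55,212-2 in 20 mM HEPES pH 7.0, 0.5% BSA for 90 min at 37 °C. Percent inhibition of radioligand binding was reported.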

CB1 receptor [6] = molecular target: T2, CB1 receptor (Homo sapiens, UniProt P21554); test: cAMP Assay #2: Hit Hunter cAMP assay, Gi-coupled agonist activity, CB1; format: cell-based; design: host or cells: PathHunter cell lines
T2 sequence (P21554 whole entry): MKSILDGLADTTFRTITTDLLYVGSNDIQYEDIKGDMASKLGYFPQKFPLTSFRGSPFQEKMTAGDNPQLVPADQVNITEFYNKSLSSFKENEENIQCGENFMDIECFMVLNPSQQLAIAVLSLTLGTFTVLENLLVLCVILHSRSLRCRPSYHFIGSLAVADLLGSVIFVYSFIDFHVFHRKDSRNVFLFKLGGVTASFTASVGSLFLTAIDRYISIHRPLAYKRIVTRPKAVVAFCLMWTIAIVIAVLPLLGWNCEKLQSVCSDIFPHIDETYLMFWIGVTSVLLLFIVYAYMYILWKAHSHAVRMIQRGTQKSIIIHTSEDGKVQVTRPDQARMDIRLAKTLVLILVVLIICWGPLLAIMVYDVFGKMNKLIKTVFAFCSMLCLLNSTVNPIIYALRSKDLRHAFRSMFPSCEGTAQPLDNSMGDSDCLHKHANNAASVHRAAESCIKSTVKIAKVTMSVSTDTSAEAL

CB1 receptor [7] = molecular target: T2, CB1 receptor; test: cell-based; design: host or cells: PathHunter cell lines
CB1 receptor [8] = molecular target: T2, CB1 receptor; test: CB1 competitive radioligand binding assay ([3H] SR141716A); design: expressed in transfected cells; host or cells: Chem-1 cells
Outline: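 Chem-1 cells expressing human recombinant CB1 incubated 90 min at 37° C with 2.0 nM [3H]SR141716A and compound at 0.5 μM (1% DMSO) in HEPES pH 7.4 buffer with MgCl2, CaCl2, 0.2% BSA. Read-out is % inhibition of radioligand binding.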

CB1 receptor [9] = molecular target: T2, CB1 receptor; test: cAMP Assay #1: CB1 adenylylcyclase assay in CHO cells; format: cell-based; design: expressed in transfected cells; host or cells: CHO cells
Experimental: as §1
CB1 Activity as determined by Adenylylcyclase Assay: CB1 receptor agonist activity was measured by measuring cAMP production. A compound of the invention was incubated with CHO cells expressing human recombinant CB1 for 20 minutes at 37° C.
as §2

LPS-induced PBMCs = test: Inflammatory cytokine release from LPS-induced PBMCs (Luminex); format: cell-based, human; conditions: fold change from LPS-treated PBMCs, compounds 10 μM (DEX 1 μg/ml) 2 h, then LPS 0.1 μg/ml 24 h, negative = reduced
Experimental: Compounds of the invention were assayed for their effect on inflammatory cytokine release from lipopolysaccharides (LPS)-induced PBMCs, isolated from a human blood sample, the results of which are provided in Table 7 as fold change. Exemplary methods for quantifying secretion of inflammatory cytokines in PBMCs are known in the art, for example, as described in Hailer et al., Infection and Immunity. 68(2):752-759 (2000); and Merlini et al., Frontiers in Immunology. 7:614 (2016); each of which is incorporated herein by reference with respect to methods for evaluating cytokine release in PBMCs.
In brief, human blood samples from healthy volunteers were collected and PBMCs were isolated. PBMCs were cultured and each compound was assayed in triplicate at a final concentration of 10 μM for 2 hours. 1 μg/ml dexamethasone (DEX) served as a positive control. LPS was added at a final concentration of 0.1 μg/ml and further incubated for 24 hours. At the end of the incubation, the supernatants were collected and the levels of a panel of secreted cytokines were measured by a Human Magnetic Luminex® assay (R&D). The results in Table 7 are presented as a fold change from LPS-treated PBMCs. Reduced levels are expressed by negative values. OOR denotes values that are out of the standard curve range for the specific cytokine and thus, could not be accurately measured. Cytotoxicity was also determined. Compounds with cytotoxicity ≥50% was considered cytotoxic. Baseline cytotoxicity of untreated PBMCs was 17% and all compounds presented in Table 7 induced cytotoxicity below 25%.

[10] = PathHunter agonist mode, read-out: CB2 Activity (β-Arrestin)
[11] = OOR = out of standard curve range

T1 sequence (P34972 whole entry, the tested form may be a part): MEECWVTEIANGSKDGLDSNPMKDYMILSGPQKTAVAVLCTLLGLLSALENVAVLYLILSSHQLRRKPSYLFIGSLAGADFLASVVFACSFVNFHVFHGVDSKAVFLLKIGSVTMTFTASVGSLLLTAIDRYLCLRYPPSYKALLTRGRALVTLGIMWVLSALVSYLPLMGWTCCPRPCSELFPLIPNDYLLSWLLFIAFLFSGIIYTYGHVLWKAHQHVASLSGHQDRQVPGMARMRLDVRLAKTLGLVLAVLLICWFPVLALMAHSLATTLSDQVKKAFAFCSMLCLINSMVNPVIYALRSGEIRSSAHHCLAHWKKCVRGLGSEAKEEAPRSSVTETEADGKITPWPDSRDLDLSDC

SMILES | pEC50 (CB2 receptor [1]; [10]) | Immune modulation, cell surface and tissue remodeling biomarkers [2] | pEC50 (CB2 receptor [4]) | CB2 fold selectivity (CB2 receptor [4]) | pKi (CB2 receptor [5]) | pEC50 (CB1 receptor [6]) | pEC50 (CB1 receptor [7]) | pKi (CB1 receptor [8]) | Fold Selectivity (CB1/CB2) (CB2 receptor [5]) | pEC50 (CB2 receptor [1]) | other results
CCCCCCC(C)(C)c1cc(O)c2c(c1)OC(C)(C)c1ccc(C(=O)O)cc1-2 [Compound 31, 1-hydroxy-6,6-dimethyl-3-(2-methyloctan-2-yl)-6H-benzo[c]chromene-9-carboxylic acid] | 6.96 | Reduced Eotaxin-3 and IP-10; increased MMP-1 | 7.16 | 9.3 | 5.69 | 6.20 | < 5.52 | < 5.52 |  |  | pEC50 (CB2 receptor [3]): 7.28; inhibition at 0.05 µM (CB2 receptor [5]; 0.05 μM compound, 2.4 nM [3H] WIN-55,212-2, 90 min 37° C.): 20%; inhibition at 0.5 µM (CB1 receptor [8]; 0.5 μM compound, 2.0 nM [3H] SR141716A, 90 min 37° C.): 12%; pEC50 (CB1 receptor [9]): < 7.00
CCCCCCC(C)(C)c1cc(O)c2c(c1)OC(C)(C)[C@@H]1CC=C(C(=O)NC3CCC3)C[C@@H]21 [Compound 44, (6aR,10aR)-N-cyclobutyl-1-hydroxy-6,6-dimethyl-3-(2-methyloctan-2-yl)-6a,7,10,10a-tetrahydro-6H-benzo[c]chromene-9-carboxamide] | 8.80 | Reduced MCP-1, P-selectin, and IL-1α |  |  | 8.62 |  |  | 7.47 | 14.0 |  | pEC50 (CB1 receptor [7]; PathHunter agonist mode, read-out: CB1 Activity (β-Arrestin)): 7.95
CCCCCCC(C)(C)c1cc(O)c2c(c1)OC(C)(C)[C@@H]1CC=C(C(=O)NC(C)C)C[C@@H]21 [Compound 91, (6aR,10aR)-1-hydroxy-N-isopropyl-6,6-dimethyl-3-(2-methyloctan-2-yl)-6a,7,10,10a-tetrahydro-6H-benzo[c]chromene-9-carboxamide] |  | Reduced Eotaxin-3, P-selectin, CD69, and EGFR, IL-10 | 8.82 | 4.5 | 8.49 | 8.16 | 7.68 | 7.46 | 10.9 | 8.77 | IL17A (LPS-induced PBMCs): 1.2 fold change; IL-1β (LPS-induced PBMCs): −1.4 fold change; IL-4 (LPS-induced PBMCs): −1.6 fold change; IL-6 (LPS-induced PBMCs): −2.2 fold change; IL-8 (LPS-induced PBMCs): −1.3 fold change; IL-10 (LPS-induced PBMCs): −2.3 fold change; MCP-1 (LPS-induced PBMCs): −1.4 fold change; TNFα (LPS-induced PBMCs): −1.2 fold change; IL-12 (p70) (LPS-induced PBMCs; [11]): −1.7 fold change; L-31 (LPS-induced PBMCs; [11]): −2.1 fold change
CCCCCCC(C)(C)c1cc(O)c2c(c1)OC(C)(C)[C@@H]1CC=C(C(=O)NC3CCCC3)C[C@@H]21 [Compound 92, (6aR,10aR)-N-cyclopentyl-1-hydroxy-6,6-dimethyl-3-(2-methyloctan-2-yl)-6a,7,10,10a-tetrahydro-6H-benzo[c]chromene-9-carboxamide] |  | Reduced P-selectin | 8.80 | 17.7 | 8.42 | 7.54 | 7.76 | 7.34 | 12.0 | 8.85 | 
CCCCCCC(C)(C)c1cc(O)c2c(c1)OC(C)(C)[C@@H]1CC=C(C(=O)N3CCCCC3)C[C@@H]21 [Compound 93, ((6aR,10aR)-1-hydroxy-6,6-dimethyl-3-(2-methyloctan-2-yl)-6a,7,10,10a-tetrahydro-6H-benzo[c]chromen-9-yl)(piperidin-1-yl)methanone] | 8.51 | Reduced Eotaxin-3, P-selectin, CD69, and M-CSF; increased IL-6 |  |  | 7.50 |  | < 5.52 | 6.61 | 7.6 |  | 
CCCCCCC(C)(C)c1cc(O)c2c(c1)OC(C)(C)[C@@H]1CC=C(C(=O)NC(C)=N)C[C@@H]21 [Compound 94, (6aR,10aR)-1-hydroxy-N-(1-iminoethyl)-6,6-dimethyl-3-(2-methyloctan-2-yl)-6a,7,10,10a-tetrahydro-6H-benzo[c]chromene-9-carboxamide] |  | Reduced MCP-1 and CD69; increased IL-1α | 8.20 | 1.3 | 7.90 | 8.10 | 7.02 | 7.73 | 1.5 | 8.37 | 
CCCCCCC(C)(C)c1cc(O)c2c(c1)OC(C)(C)[C@@H]1CC=C(C(=O)NC(C)(C)C(F)(F)F)C[C@@H]21 [Compound 100, (6aR,10aR)-1-hydroxy-6,6-dimethyl-3-(2-methyloctan-2-yl)-N-(1,1,1-trifluoro-2-methylpropan-2-yl)-6a,7,10,10a-tetrahydro-6H-benzo[c]chromene-9-carboxamide] | 8.92 | Reduced Eotaxin-3, P-selectin, and CD69, | 8.68 | 49.7 | 8.14 | 6.97 | 6.59 | 7.14 | 10.0 |  | Anti-proliferation ([2]; cell type in which anti-proliferative effect was seen): Dermal fibroblasts
